The results in this text go back to patent US10301314B2, “Compounds and methods for the prevention and treatment of tumor metastasis and tumorigenesis” (The United States of America, as represented by the …, priority 2011, dated 2019).

Assay [1] relates to PC3M cell line that stably expresses GFP-PTB to mark PNCs. Put plainly: High content assay for PNC detection (reduction of PNC prevalence). The format is cell-based, human. The settings on record: Table 4, PC3M GFP-PTB cells, 16 hrs incubation; for IC50: Homo sapiens, PC-3M. An excerpt: The quantitative output for this assay is the reduction of PNC prevalence. The PNC can be detected in living cells by the expression of a green fluorescent protein (GFP) tagged to the PNC localized protein, PTB. A PC3M cell line was used that stably expresses GFP-PTB to mark PNCs. This method eliminates the need for immunofluorescent staining.
The IN Cell Analyzer 1000 automated fluorescent imaging system (GE Healthcare, Piscataway, N.J.) was used for automated image acquisition. […] The instrument acquired images of each well in a 1536-well plate with a laser-based autofocus system. To score PNC prevalence in a high-content throughput, the Multi-Target Analysis (MTA) algorithm (GE Healthcare, Investigator v3.5) to identify individual cells and granules (PNCs) within these cells was used. The nucleus was segmented via a region growing method (50 μm^2 minimum area) with light shading and noise removal to allow “touching” nuclei to be separated. Granules in the nucleus (PNCs) were segmented using a multiscale top hat method, which measures granules of 1 to 2 μm in size and used a smart masking method to identify the boundaries of each segmented granule. The algorithm was optimized and validated using positive and negative controls (50 μM camptothecin and DMSO, respectively). In particular, the MTA algorithm allows for the identification of multiple subcellular compartments and organelles (or granules) within those compartments. In this instance, the algorithm's capability to identify objects within the same color channel that only differ in size or fluorescent intensity was utilized. Also, the algorithm allows for building complex hierarchical classification systems, using output measures within the algorithm to filter and define subpopulations. For this particular assay, PNC-positive cells were scored when 1 to 3 PNC granules were detected per nucleus. Cells that contained 0 granules were scored as PNC negative, and cells with >3 granules were assumed to be false positives (very few cells have more than 3 PNCs in one focus plane), and were also scored as PNC negative.

In assay [2] the test system is PC3M reporter cell line stably expressing the PTB-GFP. Put plainly: ATP quantitation assay (ATPLite). In kind it is cell-based, human. The conditions noted are these: Table 4, PC3M cells, 24 hrs incubation; for IC50: Homo sapiens, PC-3M. The method, then:
This follow-up assay was conducted to measure the effect of compounds on cell health by measuring ATP levels (ATPLite™). ATPLite™ is an ATP monitoring system based on firefly (Photinus pyralis) luciferase. The level of ATP in a metabolically active cell is a general marker for its viability. ATP levels are often reduced during necrosis or apoptosis. In this assay, the luciferase enzyme catalyzes the conversion of the added substrate D-luciferin to oxyluciferin and light with ATP. Thus, the emitted light is proportional to the ATP concentration. For this assay, the highly metastatic PC3M reporter cell line stably expressing the PTB-GFP was provided by Professor Sui Huang of Northwestern University. The media and cell culture reagents were purchased from Invitrogen (Carlsbad, Calif.), ATPLite™ came from PerkinElmer.
(In ATP-based viability assays light output follows the ATP content of the culture.)

In general, IC50 refers to the concentration needed to halve the response being measured. Low readings indicate inhibition by little substance, high ones a need for much substance. In the case of `N=c1c2c(-c3ccccc3)cn(Cc3ccccc3)c2ncn1CCCCO` [Compound 120], the “PNC IC50(μM)” value in assay [1] is “inactive”. Moreover, the IC50 in assay [2] was 241 µM.

As for `COc1ccc(-c2c(-c3ccc(OC)cc3)n(Cc3ccccc3)c3ncn(C4CCOCC4)c(=N)c23)cc1` [Compound 104], the results for the IC50 in assay [1] and in assay [2] were 23.5 µM and 30.4 µM, respectively.

Take `N=c1c2c(-c3ccccc3)c(-c3ccccc3)n(CCc3ccccc3)c2ncn1[C@H]1CC[C@H](O)CC1` [Compound 3]: the concentration for half-maximal inhibition (IC50) worked out at 0.047 µM in assay [1] and 9.61 µM in assay [2].

For `CN(C)CCn1cnc2c(c(-c3ccccc3)c(-c3ccccc3)n2CCc2ccccc2)c1=N` [Compound 20], the values for the IC50 in assay [1] and in assay [2] were 0.469 µM and 96.1 µM, respectively.

Consider `COC(=O)C[C@@H](C(=O)OC)n1cnc2c(c(-c3ccccc3)cn2Cc2ccccc2)c1=N` [Compound 128], for which the “PNC IC50(μM)” value in assay [1] was “inactive”. The “ATP IC50(μM)” value in assay [2] is “inactive”.

In the case of `N=c1c2c(-c3ccccc3)c(-c3ccccc3)n(Cc3ccccc3)c2ncn1C1CCN(Cc2ccccc2)CC1` [Compound 23], the 50% inhibitory concentration (IC50) in assay [1] worked out at 4.69 µM; in assay [2], 121 µM.

With `COc1ccc(Cn2c(-c3ccccc3)c(-c3ccccc3)c3c(=N)n(CC4CCOCC4)cnc32)cc1` [Compound 76], the IC50 amounted to 0.935 µM in assay [1] and 48.2 µM in assay [2].

Regarding `COc1ccc(-c2c(-c3ccc(OC)cc3)n(Cc3ccccc3)c3ncn(CCO)c(=N)c23)cc1` [Compound 103], the IC50 in assay [1] was 18.7 µM; in assay [2], 24.1 µM.

With `N=c1c2c(-c3ccccc3)c(-c3ccccc3)n(CCc3ccccc3)c2ncn1CCCO` [Compound 9], the IC50 stood at 0.148 µM in assay [1] and 19.2 µM in assay [2].

In the case of `N=c1c2c(-c3ccccc3)c(-c3ccccc3)n(Cc3ccccc3)c2ncn1C1CCCC[C@H]1O` (some centres unmarked) [Compound 63], the half-maximal inhibitory concentration (IC50) in assay [1] was 0.148 µM; in assay [2], 19.2 µM.

Regarding `N=c1c2c(-c3ccccc3)c(-c3ccccc3)n(Cc3ccccc3)c2ncn1CCCCCO` [Compound 15], the concentration for half-maximal inhibition (IC50) in assay [1] is 0.372 µM; in assay [2], 24.1 µM.

As to `N=c1c2c(-c3ccccc3)c(-c3ccccc3)n(Cc3ccco3)c2ncn1CCCN1CCOCC1` [Compound 107], the IC50 in assay [1] amounted to 25 µM; in assay [2], 32.4 µM.

In the case of `N=c1c2c(-c3ccccc3)cn(Cc3ccccc3)c2ncn1CCNCCO` [Compound 131], the “PNC IC50(μM)” value in assay [1] was “inactive”. In assay [2], this compound showed a concentration for half-maximal inhibition (IC50) of 121 µM.

For `N=c1c2c(-c3ccccc3)c(-c3ccccc3)n(CC3CC3)c2ncn1CCCO` [Compound 81], the IC50 in assay [1] is 1.87 µM; in assay [2] it was 76.4 µM.

For `N=c1c2c(-c3ccccc3)c(-c3ccccc3)n(Cc3ccco3)c2ncn1CCN1CCOCC1` [Compound 50], the “PNC IC50(μM)” value in assay [1] is “inactive”. Besides, the IC50 in assay [2] turned out to be 32.4 µM.

As to `N=c1c2c(-c3ccccc3)c(-c3ccccc3)n(Cc3ccccc3)c2ncn1CCCn1ccnc1` [Compound 36], the IC50 in assay [1] is 1.99 µM; in assay [2], 25.7 µM.

For the compound `COc1ccc(-c2c(-c3ccc(OC)cc3)n(Cc3ccccc3)c3ncn(CC4CCOCC4)c(=N)c23)cc1` [Compound 123], the “PNC IC50(μM)” value in assay [1] is “inactive”. In addition, the half-inhibitory concentration (IC50) in assay [2] came out at 24.1 µM.

`COc1ccc(-c2c(-c3ccc(OC)cc3)n(Cc3ccccc3)c3ncn([C@H]4CC[C@H](O)CC4)c(=N)c23)cc1` [Compound 94]: the IC50 in assay [1] is 9.35 µM; in assay [2], 24.1 µM.

As for `N=c1c2c(-c3ccccc3)c(-c3ccccc3)n(Cc3ccco3)c2ncn1Cc1ccccc1` [Compound 102], the IC50 came to 15.8 µM in assay [1] and 25.7 µM in assay [2].

Consider `N=c1c2c(-c3ccccc3)c(-c3ccccc3)n(CCc3ccccc3)c2ncn1C1CCN(Cc2ccccc2)CC1` [Compound 24], for which the IC50 in assay [1] is 1.87 µM; in assay [2], 24.1 µM.

Regarding `N=c1c2c(-c3ccccc3)c(-c3ccccc3)n(Cc3ccc(S(N)(=O)=O)cc3)c2ncn1C1CCOCC1` [Compound 57], the IC50 in assay [1] came to 0.059 µM; in assay [2], 96.1 µM.

As to `N=c1c2c(-c3ccccc3)c(-c3ccccc3)n(CCc3ccccc3)c2ncn1C1CCCC[C@H]1O` (some centres unmarked) [Compound 68], the results for the IC50 in assay [1] and in assay [2] were 0.296 µM and 38.3 µM, respectively.

Take `N=c1c2c(-c3ccccc3)c(-c3ccccc3)n(CC3CCCCC3)c2ncn1C[C@H]1CCCC[C@@H]1O` [Compound 101]: the figures for the IC50 in assay [1] and in assay [2] were 14.8 µM and 24.1 µM, respectively.

Regarding `N=c1c2c(-c3ccccc3)c(-c3ccccc3)n(CC3CCCCC3)c2ncn1CC1CCOCC1` [Compound 95], the IC50 amounted to 11.8 µM in assay [1] and 24.1 µM in assay [2].

On to `CCOC(CCCn1cnc2c(c(-c3ccccc3)c(-c3ccccc3)n2CCc2ccccc2)c1=N)OCC` [Compound 32], for which the results for the IC50 in assay [1] and in assay [2] were 18.7 µM and 24.1 µM, respectively.

Regarding `N=c1c2c(-c3ccccc3)c(-c3ccccc3)n(Cc3ccccc3)c2ncn1C1CCCC[C@H]1CO` (some centres unmarked) [Compound 66], the IC50 in assay [1] worked out at 0.296 µM; in assay [2], 76.4 µM.

With `COc1ccc(CCn2cnc3c(c(-c4ccccc4)c(-c4ccccc4)n3Cc3ccccc3)c2=N)cc1OC` [Compound 46], the half-inhibitory concentration (IC50) in assay [1] turned out to be 14.8 µM; in assay [2], 24.1 µM.

`COCCn1cnc2c(c(-c3ccccc3)cn2Cc2ccccc2)c1=N` [Compound 115]: the “PNC IC50(μM)” value in assay [1] is “inactive”. The same compound gave an IC50 in assay [2] of 121 µM.

Consider `N=c1c2c(-c3ccccc3)c(-c3ccccc3)n(Cc3ccc(S(N)(=O)=O)cc3)c2ncn1CCCO` [Compound 105], for which the IC50 in assay [1] came out at 23.5 µM; in assay [2], 304 µM.

As to `COc1ccc(Cn2c(-c3ccccc3)c(-c3ccccc3)c3c(=N)n(N4CCOCC4)cnc32)cc1` [Compound 98], the IC50 in assay [1] was determined as 14.8 µM; in assay [2] it was 121 µM.

For the compound `COc1ccc(Cn2c(-c3ccccc3)c(-c3ccccc3)c3c(=N)n(CC4CCCO4)cnc32)cc1` (centres unmarked) [Compound 40], the IC50 in assay [1] is 5.9 µM; in assay [2] it was 38.3 µM.

With `COC(=O)c1cccc(Cn2cnc3c(c(-c4ccccc4)c(-c4ccccc4)n3CCc3ccccc3)c2=N)c1` [Compound 53], the half-inhibitory concentration (IC50) in assay [1] was found to be 29.6 µM; in assay [2], 24.1 µM.

Take `N=c1c2c(-c3ccccc3)c(-c3ccccc3)n(Cc3ccccc3)c2ncn1CCNc1ccncc1` [Compound 72]: the values for the IC50 in assay [1] and in assay [2] were 0.469 µM and 24.1 µM, respectively.

With `COc1ccc(-c2c(-c3ccc(OC)cc3)n(Cc3ccccc3)c3ncn([C@H]4CC[C@H](OC)CC4)c(=N)c23)cc1` [Compound 93], the results for the IC50 in assay [1] and in assay [2] were 7.43 µM and 60.7 µM, respectively.

For the compound `N=c1c2c(-c3ccccc3)c(-c3ccccc3)n(Cc3ccc(S(N)(=O)=O)cc3)c2ncn1CC1CCOCC1` [Compound 79], the IC50 in assay [1] is 1.87 µM; in assay [2] it was 383 µM.

Consider `C[C@H]([C@@H](O)c1ccccc1)n1cnc2c(c(-c3ccccc3)cn2Cc2ccccc2)c1=N` [Compound 119], for which, in assay [1], the “PNC IC50(μM)” value was “inactive”. The same compound displayed an IC50 in assay [2] of 121 µM.

Consider `N=c1c2c(-c3ccccc3)cn(Cc3ccccc3)c2ncn1[C@H](CO)Cc1ccccc1` [Compound 111], for which the IC50 in assay [1] was determined as 93.5 µM; in assay [2] it was 121 µM.

Regarding `N=c1c2c(-c3ccccc3)cn(Cc3ccccc3)c2ncn1Cc1ccco1` [Compound 138], in assay [1], the “PNC IC50(μM)” value was “inactive”. 60.7 µM corresponded to half-maximal inhibition in assay [2] (IC50).

As to `N=c1c2c(-c3ccccc3)cn(Cc3ccccc3)c2ncn1C1CCOCC1` [Compound 122], the “PNC IC50(μM)” value in assay [1] was “inactive”. For the same compound, the “ATP IC50(μM)” value in assay [2] was “inactive”.

For the compound `N=c1c2c(-c3ccccc3)c(-c3ccccc3)n(Cc3ccc(OC(F)(F)F)cc3)c2ncn1[C@H]1CC[C@@H](O)CC1` [Compound 84], the IC50 in assay [1] was 2.96 µM; in assay [2] it was 24.1 µM.

For `N=c1c2c(-c3ccccc3)c(-c3ccccc3)n(CCc3ccccc3)c2ncn1CC1CCCO1` (centres unmarked) [Compound 39], the IC50 in assay [1] is 4.69 µM; in assay [2] it was 48.2 µM.

As for `N=c1c2c(-c3ccccc3)cn(Cc3ccc(Br)cc3)c2ncn1CCCN1CCN(c2ccccc2)CC1` [Compound 110], the IC50 in assay [1] is 46.9 µM; in assay [2] it was 30.4 µM.

As for `COCCn1cnc2c(c(-c3ccccc3)c(-c3ccccc3)n2Cc2ccc(OC)cc2)c1=N` [Compound 27], the IC50 turned out to be 1.18 µM in assay [1] and 24.1 µM in assay [2].
